According to patent US7662860B2 (priority 2003, dated 2010):

Target: SARS-CoV virus 3CL protease protein (Severe acute respiratory syndrome coronavirus, UniProt P0C6X7)
Test: biochemical
Type: binding

In the case of `CN(C)CCCSc1ccccc1NC(=O)C=Cc1ccccc1` [cinanserin, 2′-(3-dimethylaminopropylthio)cinnamanilide], the kd is reported as 0.00993 s⁻¹ and the kon (read-out: ka) is reported as 38600 M⁻¹ s⁻¹.
